In article PMC9953224, “Pharmacokinetic Evaluation of New Drugs Using a Multi-Labelling Approach and PET Imaging: Application to a Drug Candidate with Potential Application in Neuromuscular Disorders” (Biomedicines, 2023):
Like-named read-outs stand apart in the source and are kept apart here.

Assays:
[1] = Pharmacokinetics from metabolite-corrected arterial plasma TACs after intravenous administration; assay type: in vivo, Sprague Dawley Rats; settings: for MRT / Vd / half-life: Sprague Dawley, rat, arterial plasma; for MRT: read-out: MRT mean residence time (converted); for Vd / half-life: iv; for half-life: read-out: t1/2 terminal half-life
Experimental: Anaesthesia was induced with 5% isoflurane (IsoFlo®, Abbott Laboratories, Abbott Park, IL, USA) and maintained by 2% of isoflurane in 100% O2. During the experiment, rats were kept normothermic using a heating blanket (Homeothermic Blanket Control Unit; Bruker). The rat was positioned in supine position on an operating table and the two distal hind limbs were fixed forming an approximately 30° angle with the horizontal plane. The surgical region was scrubbed using Betadine, starting in the centre, and making a circular sweep outward. A skin incision was made in the femoral region. Soft tissue was dissected to expose the femoral neurovascular bundle, consisting of femoral vein, artery, and nerve. Fine tip forceps were placed between the artery, vein and nerve and were slowly opened to separate the vessels, exposing an approximately 1 cm length section of artery/vein. The vena profunda femoris was sutured to avoid retrograde bleeding via this vessel, and the sapheno-femoral junction was cauterized. A few millimetres from venatomy, a vascular clip was inserted in the direction of the catheter (to control the flow) and a suture was applied in the opposite direction (to avoid retrograde bleeding). The same operation was carried out both on the femoral vein and femoral artery. An appropriate syringe filled with 50 U/mL Heparin/physiologic saline solution was fixed at the terminus of the catheters and these were filled with heparinized saline solution. On the upper half of the vessel circumference, at a 45° angle, an incision was made and the catheter (fine bore polythene tubing: ID 0.58 mm, OD 0.98 mm) was inserted through the venotomy and advanced to the vascular clip. The vascular clip was then removed, and the catheter advanced distally towards the level of the inguinal ligament. The catheter was finally secured to the femoral vein/artery proximally and distally with 2 single knots using 4–0 braided silk suture. The catheters were connected to an in-house developed system composed by a peristaltic pump and gamma-radiation coincidence detector (Bioscan, B-FC-4100). The femoral artery catheter, the gamma detector, the peristaltic pump, and the femoral vein catheter were thus connected in series, to enable the extracorporeal circulation of blood (flow 150 μL/s from femoral artery to femoral vein) and continuous measurement of radioactivity in the blood (Figure 1).
The labelled compounds were administrated two different ways: (i) intravenous bolus infusion (ca. 37 MBq in 300 μL of saline solution was injected through the femoral vein catheter) and (ii) oral bolus administration. For oral administration, animals were fasted for 5 h. The radioactive dose (ca. 74 MBq in 300 μL of saline solution) was administered using flexible 20-gauge disposable flexible PTFE feeding needles (Fine Science Tools, F.S.T.) and a small animal Laryngoscope (Penn-Century, Model LS-2) for the correct visualization of the oesophagus. The study was conducted under no carrier added (NCA, dose adjusted to 1 μg/Kg) and carrier added (CA, dose adjusted to 5 mg/Kg) conditions. In all cases, data were imported in real time to an excel sheet using PLX-DAX add-on for Microsoft Excel (measured in volts per second).
Arterial blood samples (1 per animal) were withdrawn (see Figure 1) from the femoral artery catheter and introduced into a capillary (Microhaematocrit capillaries 75 × 1.55, Nahita). Samples were centrifuged at 11,000× g […] for 10 min and the haematocrit was determined. A second blood sample was withdrawn and the amount of radioactivity of a fixed volume (10 µL) was measured in an automatic gamma counter (2470 Wizard, PerkinElmer) to determine Cb (concentration of radioactivity in blood) and convert data imported with PLX-DAX (Volts per seconds) into Bq/s using a previously determined calibration curve. Values were then expressed as percentage of injected dose per gram of blood (% ID/g). […]

[2] = In vitro metabolism with rat liver microsomes; assay type: in vitro ADME; settings: NADPH, 30 min
Experimental: Labelled compounds ([^11C]AHK2.1, 2.8 MBq, 0.4 nmol; [^11C]AHK2.2, 4.7–5.1 MBq, 0.2–0.4 nmol; [^3H]AHK2, 0.25 MBq, 0.5 nmol; or non-radioactive AHK2, the latter for metabolite identification) and microsomal protein (rat Sprague Dawley microsomes, Thermo Fisher Scientific, Carlsbad, CA, USA; which are a sub-cellular fraction of hepatocytes containing enzymes responsible for the metabolism of over 90% of commercial drugs; 20 mg/mL) were pre-incubated for 5 min with gentle agitation (300 rpm) in 100 mM phosphate buffer (pH 7.4). The reaction was initiated by the addition of 10 μL freshly prepared 20 mM nicotinamide adenine dinucleotide phosphate (NADPH, Roche, Mannheim, Germany) in 100 mM phosphate buffer (pH 7.4). […] The resulting supernatants were analysed by HPLC, using an Agilent 1200 Series chromatograph equipped with a multiple wavelength UV detector (λ = 254 nm) and two radioactivity detectors, one of them equipped with a solid scintillation cell, especially designed to detect low energy β^- (Ramona, Raytest), and one of them equipped with a NaI crystal, for the detection of γ-rays (Gabi, Raytest). […] For the non-radioactive AHK2, the resulting supernatants were analysed by ultra-high-performance liquid chromatography coupled with electrospray ionization time-of-flight mass spectrometry (UHPLC-ESI-TOF-MS, Electrospray positive mode/W mode m/z range 100–1000). […]

[3] = 1 ug/kg, intravenous, 1 µg/Kg, n = 5
[4] = intravenous, both groups (1 µg/Kg and 5 mg/Kg) pooled together

MRT [1, 3]: 8.48 min
Vd ([1]; 1 ug/kg, intravenous, 1 µg/Kg, n = 5, read-out: Vss volume of distribution at the steady state): 1.03 ± 0.695 L
Vd ([1]; 1 ug/kg, intravenous, 1 µg/Kg, n = 5, read-out: Vz volume of distribution based on the terminal slope): 2 ± 0.43 L
half-life [1, 3]: 11.7 ± 3.22 min
Vd ([1]; 5 mg/kg, intravenous, 5 mg/Kg, n = 5, read-out: Vss volume of distribution at the steady state): 1.13 ± 0.443 L
Vd ([1]; 5 mg/kg, intravenous, 5 mg/Kg, n = 5, read-out: Vz volume of distribution based on the terminal slope): 2.34 ± 0.609 L
half-life ([1]; 5 mg/kg, intravenous, 5 mg/Kg, n = 5): 13.6 ± 3.42 min
Vd ([1]; both groups (1 µg/Kg and 5 mg/Kg) pooled together, read-out: Vss volume of distribution at the steady state): 1.08 ± 0.809 L
Vd ([1]; both groups (1 µg/Kg and 5 mg/Kg) pooled together, read-out: Vz volume of distribution based on the terminal slope): 2.17 ± 1.13 L
half-life ([1]; both groups (1 µg/Kg and 5 mg/Kg) pooled together): 12.6 ± 3.3 min
MRT ([1]; intravenous, 5 mg/Kg, n = 5): 8.59 min
MRT [1, 4]: 8.53 min
AUC area under the curve ([1]; intravenous, 1 µg/Kg, n = 5): 53.99 ± 11.04 %IDxs/mL
Cl plasma clearance ([1]; intravenous, 1 µg/Kg, n = 5): 1.91 ± 0.41 mL/s
AUC area under the curve ([1]; intravenous, 5 mg/Kg, n = 5): 59.39 ± 19.76 %IDxs/mL
Cl plasma clearance ([1]; intravenous, 5 mg/Kg, n = 5): 1.87 ± 0.73 mL/s
AUC area under the curve [1, 4]: 56.69 ± 15.36 %IDxs/mL
Cl plasma clearance [1, 4]: 1.89 ± 0.55 mL/s
t1/2 terminal half-life [1, 4]: 12.63 ± 3.29 min
Structure (SMILES): COc1ccc(SCc2cn(CCN(C)C)nn2)cc1 [AHK2, 1-[2-(N,N-dimethylamino)ethyl]-4-[(4-methoxyphenyl)thiomethyl]-1H-1,2,3-triazole]
main metabolic pathways [2]: oxidation of the thioether group into sulfoxide, demethylation of the CH3O-Ar residue and demethylation of –N(CH3)2
